Series [1] has as its target T1, Sodium channel protein type 9 subunit alpha (Homo sapiens, UniProt Q15858). Kind of series: Inhibition of human Nav1.7 expressed in HEK cells by automated patchXpress electrophysiology method. Type of series: cell-based.
Series [2] addresses T1, Sodium channel protein type 9 subunit alpha. In words: Inhibition of human Nav1.7 expressed in HEK cells by patch clamp electrophysiology method. The series is classed as cell-based.
The target of series [3] is Sodium channel protein type 5 subunit alpha (Homo sapiens, UniProt Q14524). Kind of series: Inhibition of human Nav1.5 expressed in HEK cells by automated patchXpress electrophysiology method. The series is classed as ADME, cell-based.
Chain of Sodium channel protein type 5 subunit alpha (Q14524 whole entry): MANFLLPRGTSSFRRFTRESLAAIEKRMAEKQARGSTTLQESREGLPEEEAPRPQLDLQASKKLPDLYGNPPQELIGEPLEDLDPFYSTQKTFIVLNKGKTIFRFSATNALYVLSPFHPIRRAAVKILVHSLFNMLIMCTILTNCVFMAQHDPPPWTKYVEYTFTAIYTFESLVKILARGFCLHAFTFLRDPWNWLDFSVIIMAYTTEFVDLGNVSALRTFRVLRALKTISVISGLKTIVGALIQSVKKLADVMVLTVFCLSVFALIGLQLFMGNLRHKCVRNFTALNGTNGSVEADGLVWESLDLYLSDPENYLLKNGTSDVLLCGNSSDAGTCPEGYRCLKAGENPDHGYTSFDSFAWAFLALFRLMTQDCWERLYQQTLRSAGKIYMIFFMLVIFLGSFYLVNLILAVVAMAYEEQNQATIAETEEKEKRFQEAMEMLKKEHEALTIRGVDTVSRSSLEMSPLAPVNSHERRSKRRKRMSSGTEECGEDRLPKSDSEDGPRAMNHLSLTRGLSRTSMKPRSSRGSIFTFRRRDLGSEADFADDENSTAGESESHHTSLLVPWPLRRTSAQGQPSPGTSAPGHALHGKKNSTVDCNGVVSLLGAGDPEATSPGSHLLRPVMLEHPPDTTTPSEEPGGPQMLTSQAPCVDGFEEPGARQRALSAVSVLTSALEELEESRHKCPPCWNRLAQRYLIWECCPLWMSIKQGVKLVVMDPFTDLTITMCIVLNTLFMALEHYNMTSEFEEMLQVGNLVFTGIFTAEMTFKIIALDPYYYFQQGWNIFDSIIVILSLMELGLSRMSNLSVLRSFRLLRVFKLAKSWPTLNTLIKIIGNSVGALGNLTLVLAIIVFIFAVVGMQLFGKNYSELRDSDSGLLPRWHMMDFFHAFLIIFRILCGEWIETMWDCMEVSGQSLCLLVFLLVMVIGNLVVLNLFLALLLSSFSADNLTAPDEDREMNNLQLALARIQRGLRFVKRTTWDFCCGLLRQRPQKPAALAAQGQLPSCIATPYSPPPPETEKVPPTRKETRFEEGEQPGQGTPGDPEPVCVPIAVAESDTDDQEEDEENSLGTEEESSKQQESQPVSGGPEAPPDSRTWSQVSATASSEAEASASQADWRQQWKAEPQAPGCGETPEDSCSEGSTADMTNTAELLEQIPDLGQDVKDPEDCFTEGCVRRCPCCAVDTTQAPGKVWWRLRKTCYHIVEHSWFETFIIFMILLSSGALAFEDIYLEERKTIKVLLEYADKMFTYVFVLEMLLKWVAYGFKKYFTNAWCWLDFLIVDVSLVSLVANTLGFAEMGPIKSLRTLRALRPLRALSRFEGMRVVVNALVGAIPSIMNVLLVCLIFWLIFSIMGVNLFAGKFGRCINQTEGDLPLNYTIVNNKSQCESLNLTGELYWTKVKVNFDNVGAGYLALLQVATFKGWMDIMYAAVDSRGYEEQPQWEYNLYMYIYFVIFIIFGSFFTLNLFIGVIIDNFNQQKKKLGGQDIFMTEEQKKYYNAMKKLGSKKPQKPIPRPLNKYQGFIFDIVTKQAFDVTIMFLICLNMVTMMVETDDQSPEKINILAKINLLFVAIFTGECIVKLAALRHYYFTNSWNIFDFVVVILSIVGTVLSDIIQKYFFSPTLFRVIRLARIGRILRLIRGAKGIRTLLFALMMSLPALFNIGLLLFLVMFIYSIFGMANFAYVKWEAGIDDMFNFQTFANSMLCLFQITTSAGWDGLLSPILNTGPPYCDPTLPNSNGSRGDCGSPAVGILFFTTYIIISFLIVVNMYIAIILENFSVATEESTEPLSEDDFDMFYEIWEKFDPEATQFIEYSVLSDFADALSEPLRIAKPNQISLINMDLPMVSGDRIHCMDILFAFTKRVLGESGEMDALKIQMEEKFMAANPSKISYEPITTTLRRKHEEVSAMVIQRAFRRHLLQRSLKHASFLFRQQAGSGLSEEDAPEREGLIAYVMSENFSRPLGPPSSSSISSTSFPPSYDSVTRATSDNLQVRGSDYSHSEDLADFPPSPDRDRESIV
A short description of series [4]: Solubility of the compound in aqueous buffer at pH 3. Type of series: physicochemical.
A short description of series [5]: Solubility of the compound in aqueous buffer at pH 7.2. The series is classed as physicochemical.
The nature of series [6]: Solubility of the compound in aqueous buffer at pH 4.2. Type of series: physicochemical.
The nature of series [7]: Solubility of the compound in aqueous buffer at pH 5.1. Type of series: physicochemical.

By IC50 is commonly meant the midpoint of a concentration-inhibition curve. Broadly, the solubility is how much of the substance goes into solution per volume.

Values after ≈ are worked out from the molar mass of the structure shown. A value given as a limit tells only on which side of the number the result lay.

T1 sequence (Q15858 whole entry): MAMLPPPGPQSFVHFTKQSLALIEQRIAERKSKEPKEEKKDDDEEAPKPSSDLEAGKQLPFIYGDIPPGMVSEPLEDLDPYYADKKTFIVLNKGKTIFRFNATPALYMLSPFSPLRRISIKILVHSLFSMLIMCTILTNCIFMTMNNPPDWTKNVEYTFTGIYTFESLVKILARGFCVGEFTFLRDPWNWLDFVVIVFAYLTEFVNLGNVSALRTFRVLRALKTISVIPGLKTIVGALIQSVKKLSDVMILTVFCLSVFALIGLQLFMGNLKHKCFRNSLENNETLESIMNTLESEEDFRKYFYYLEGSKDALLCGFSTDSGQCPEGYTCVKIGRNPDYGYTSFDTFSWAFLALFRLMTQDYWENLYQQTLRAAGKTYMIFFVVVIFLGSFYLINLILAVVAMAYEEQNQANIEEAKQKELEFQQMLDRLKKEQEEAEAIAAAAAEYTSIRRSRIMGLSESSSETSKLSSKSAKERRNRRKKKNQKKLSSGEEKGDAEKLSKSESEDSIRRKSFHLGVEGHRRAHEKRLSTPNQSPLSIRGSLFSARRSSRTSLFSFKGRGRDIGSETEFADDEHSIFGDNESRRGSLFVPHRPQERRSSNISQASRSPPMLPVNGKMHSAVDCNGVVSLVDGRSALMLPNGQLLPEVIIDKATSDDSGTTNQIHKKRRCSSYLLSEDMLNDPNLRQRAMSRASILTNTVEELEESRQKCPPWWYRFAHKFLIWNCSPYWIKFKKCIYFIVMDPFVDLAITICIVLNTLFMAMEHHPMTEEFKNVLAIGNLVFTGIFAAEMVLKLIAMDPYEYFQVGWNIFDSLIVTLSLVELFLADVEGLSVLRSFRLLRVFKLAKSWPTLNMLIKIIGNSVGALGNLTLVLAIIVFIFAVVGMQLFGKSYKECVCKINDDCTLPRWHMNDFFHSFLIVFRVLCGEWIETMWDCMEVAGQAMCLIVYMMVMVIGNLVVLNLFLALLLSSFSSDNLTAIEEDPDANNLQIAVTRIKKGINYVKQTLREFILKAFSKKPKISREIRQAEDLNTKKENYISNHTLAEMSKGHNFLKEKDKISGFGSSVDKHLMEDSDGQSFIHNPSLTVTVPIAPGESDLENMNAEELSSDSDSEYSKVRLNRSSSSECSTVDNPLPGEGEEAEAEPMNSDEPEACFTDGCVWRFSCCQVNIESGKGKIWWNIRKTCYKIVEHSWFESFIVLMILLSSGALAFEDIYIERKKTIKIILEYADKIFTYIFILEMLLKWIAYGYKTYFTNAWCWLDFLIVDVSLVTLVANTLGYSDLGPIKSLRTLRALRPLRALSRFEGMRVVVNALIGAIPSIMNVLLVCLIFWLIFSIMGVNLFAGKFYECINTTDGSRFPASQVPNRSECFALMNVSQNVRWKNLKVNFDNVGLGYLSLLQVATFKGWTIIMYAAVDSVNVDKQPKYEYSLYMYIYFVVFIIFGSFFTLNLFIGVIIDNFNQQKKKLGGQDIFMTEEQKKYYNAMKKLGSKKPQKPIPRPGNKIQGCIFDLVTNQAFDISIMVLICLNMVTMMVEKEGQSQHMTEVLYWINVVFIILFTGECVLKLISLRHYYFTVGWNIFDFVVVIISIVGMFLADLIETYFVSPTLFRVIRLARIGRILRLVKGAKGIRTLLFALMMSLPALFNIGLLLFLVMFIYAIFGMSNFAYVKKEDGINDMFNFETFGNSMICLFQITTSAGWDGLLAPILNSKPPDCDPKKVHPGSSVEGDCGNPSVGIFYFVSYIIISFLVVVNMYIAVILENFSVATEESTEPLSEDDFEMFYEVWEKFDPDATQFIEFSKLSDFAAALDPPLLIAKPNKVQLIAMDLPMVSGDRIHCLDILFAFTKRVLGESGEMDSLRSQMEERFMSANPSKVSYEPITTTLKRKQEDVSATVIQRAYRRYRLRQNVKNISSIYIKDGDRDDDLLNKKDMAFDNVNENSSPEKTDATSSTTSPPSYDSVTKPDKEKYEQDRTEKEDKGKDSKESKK

For `O=S(=O)(Nc1cscn1)c1cc(Cl)c(Oc2ccc(Cl)cc2-c2ccnc(CN3CCC3)c2)cc1F`, 13.2 nM corresponded to half-maximal inhibition in series [1] (IC50).

In series [1], `CC(=O)N1CCC(CCNCc2cc(-c3cc(-c4cccc(C(F)(F)F)c4)ccc3Oc3ccc(S(=O)(=O)Nc4ncns4)cc3C#N)ccn2)CC1` came in with an IC50 of under 4 nM.

`N#Cc1cc(S(=O)(=O)Nc2ncns2)ccc1Oc1ccc(-c2cccc(C(F)(F)F)c2)cc1-c1ccnc(CN)c1` gave an IC50 in series [2] of 0.1 nM.

Molecule `N#Cc1cc(S(=O)(=O)Nc2ncns2)ccc1Oc1ccc(Cl)cc1-c1cccc(CN)c1` gave an IC50 in series [1] of 8.5 nM.

`Cc1cc(C)n2c1C=C1C=CC(CCCCC(=O)NCCOCCOCCC(=O)N3CCC(CCNCc4cc(-c5cc(-c6cccc(C(F)(F)F)c6)ccc5Oc5ccc(S(=O)(=O)Nc6ncns6)cc5C#N)ccn4)CC3)=[N+]1[B-]2(F)F`: in series [2], the IC50 amounted to 0.12 nM.

In turn, `O=S(=O)(Nc1nncs1)c1cc(Cl)c(Oc2ccc(Cl)cc2-c2ccnc(CN3CCC3)c2)cc1F` registered an IC50 in series [1] of 4.8 nM.

Consider `COCCOCCOCCOCCOCCOCCOCCOCCOCCOCCOCCOCCC(=O)N1CCC(CCNCc2cc(-c3cc(-c4cccc(C(F)(F)F)c4)ccc3Oc3ccc(S(=O)(=O)Nc4ncns4)cc3C#N)ccn2)CC1`, for which the figures for the IC50 in series [1] and in series [3] were under 10 nM and over 3000 nM, respectively.

As to `N#Cc1cc(S(=O)(=O)Nc2ncns2)ccc1Oc1ccc(Cl)cc1-c1cccc(CNCCC2CCNCC2)c1`, the IC50 in series [1] was found to be 0.7 nM.

Regarding `NCc1cc(-c2cc(-c3cccc(C(F)(F)F)c3)ccc2Oc2cc(F)c(S(=O)(=O)Nc3nncs3)cc2Cl)ccn1`, the solubility in series [4] was 6 µg/mL (≈ 9.43 µM); in series [5], under 0.5 µg/mL; in series [6], under 0.5 µg/mL; in series [7], under 0.5 µg/mL.

Turning to `C#CCCOc1ccc(C(=O)c2ccc(CCC(=O)N3CCC(CCNCc4cc(-c5cc(-c6cccc(C(F)(F)F)c6)ccc5Oc5ccc(S(=O)(=O)Nc6ncns6)cc5C#N)ccn4)CC3)cc2)cc1`, the IC50 in series [2] was determined as 0.1 nM.

The values are drawn from ChEMBL document CHEMBL4177603 (Bioorg Med Chem Lett, 2017).
